# In patent US10961242B2, “Compounds as autotaxin inhibitors and pharmaceutical compositions comprising the same” (LegoChem Biosciences, Inc., priority 2018, dated 2021):
# Counter-ions that a name gives are not always drawn. Like-named read-outs stand apart in the source and are kept apart here.
# Assays:
# Format in all cases: biochemical
# human ENPP2 = human ENPP2 (Homo sapiens (Human), UniProt Q13822); experiment: Inhibitory activity on human ENPP2 (FS-3 assay)
# Protocol: Two-fold dilution of each test compound solution (10 μM, 100% dimethyl sulfoxide) is carried out on 96-well V bottom plate (Costar 3363). After ten-fold dilution of each the test compound solution (100% dimethyl sulfoxide) with deionized distilled water, 10 μL of the diluted each mpound solution (10% dimethyl sulfoxide) was aliquoted to a black flat bottom 96-well plate (Costar 3915).
# [1] = tested on: LPA production in blood serum caused by autotoxin; experiment: Inhibitory activity on LPA production in mouse blood serum; settings: mouse blood serum (m), 18:1 LPC, 3 hours at 37° C.
# Protocol: After 100-fold dilution of each test compound solution (5 μL) (10 mM, 100%, dimethyl sulfoxide) with 495 μL of methanol, 3 μL of the diluted methanol solution (1% dimethyl sulfoxide) was mixed with 57 μL of human or mouse blood serum solution in a 1.5 mL tube. […] Subsequently, a solution prepared by diluting 10 mg/mL 18:1 LPC solution (50% ethanol) with blood serum to have concentration of 375 μg/mL was aliquoted in an amount of 2 μL to each tube so as to have 50 μL. Each tube was kept for 3 hours in a water bath at 37° C. to allow a reaction. To the tube obtained after the reaction, 100 μL of 0.5 μM 17:0 LPA solution (chloroform/methanol/water=65/35/8) was aliquoted and mixed therein. Centrifuge was carried out for 10 minutes using a centrifuge at conditions of 14,000 rpm and 4° C. 100 μL of 50% methanol solution is aliquoted first to a 96-well polypropylene plate (Agilent Technology 5042-1385), and the supernatant (50 μL) in a tube after the centrifuge was carefully transferred to the plate followed by mixing. After covering it with Well cap (Thermo 276011), analysis was carried out by LC-MS/MS (Agilent 1260).
# In the following Table 3, the mouse blood serum was described as (m) and human blood serum was described as (h).
# human ATX = human ATX (Homo sapiens (Human), UniProt Q13822); experiment: Bis-pNPP assay; settings: bis-pNPP substrate, read-out: Enzymatic assay (IC50) bis-pNPP
# Protocol: Eight-fold dilution of each test compound solution (10 μM, 100% dimethyl sulfoxide) is carried out on 96-well V bottom plate (Costar 3363). After […] of each test compound solution (100% dimethyl sulfoxide) with deionized distilled water, 10 μL of the diluted each test compound solution (10% dimethyl sulfoxide) was aliquoted to a black flat bottom 96-well plate (Costar 3915). 50 μL of 60 mM Tris-HCl (pH9.0) buffer was added thereto, and subsequently 20 μL of 3.75 nM human ATX solution (buffer solution: 50 mM Tris-HCl (pH8.5), 5 mM CaCl2, 2.5 mM MgCl2, 0.01% Brij35) and 20 μL of 25 mM Bis-pNPP (bis(p-Nitrophenyl)-phosphate sodium salt) solution (buffer solution: 50 mM Tris-HCl (pH9.0)) were added thereto, respectively, followed by mixing. […] Furthermore, IC50 values that are shown in Table 3 were calculated using Grafit5 Software based on the inhibitory activity percentage ratio.
# [2] = human ENPP2, FS-3 substrate, 30 min at 37° C., read-out: IC50
# [3] = FS-3 assay, same process as Test example 1, read-out: Enzymatic assay (IC50) FS-3
Structure (SMILES),IC50 (human ENPP2; [2]) [nM],IC50 [1] [nM],IC50 (human ATX) [nM],also measured
"O=C(Cc1nnc(-c2cnc(NCc3cccc(OC(F)(F)F)c3)nc2)o1)N1CCc2[nH]nnc2C1 [Compound 34, 1-{1H,4H,5H,6H,7H-[1,2,3]triazolo[4,5-c]pyridin-5-yl}-2-{5-[2-({[3-(trifluoromethoxy)phenyl]methyl}amino)pyrimidin-5-yl]-1,3,4-oxadiazol-2-yl}ethan-1-one]",2,52,–,–
"O=C(CCN1CCc2[nH]nnc2C1)N1CCN(c2cnc(NC3Cc4ccccc4C3)nc2)CC1 [Compound 12, 1-(4-{2-[(2,3-dihydro-1H-inden-2-yl)amino]pyrimidin-5-yl}piperazin-1-yl)-3-{1H,4H,5H,6H,7H-[1,2,3]triazolo[4,5-c]pyridin-5-yl}propan-1-one]",3.2,11,–,–
"O=C(CCN1CCc2[nH]nnc2C1)N1CCN(c2cnc(NCc3cccc(OC(F)(F)F)c3)nc2)CC1 [Compound 13, 3-{1H,4H,5H,6H,7H-[1,2,3]triazolo[4,5-c]pyridin-5-yl}-1-{4-[2-({[3(trifluoromethoxy)phenyl]methyl}amino)pyrimidin-5-yl]piperazin-1-yl}propan-1-one]",3.7,13,–,–
"O=C(CN1CCN(c2cnc(NC3Cc4ccccc4C3)nc2)CC1)N1CCc2[nH]nnc2C1 [Compound 20, 2-(4-{2-[(2,3-dihydro-1H-inden-2-yl)amino]pyrimidin-5-yl}piperazin-1-yl)-1-{1H,4H,5H,6H,7H-[1,2,3]triazolo[4,5-c]pyridin-5-yl}ethan-1-one]",2.6,29,–,–
"Cc1nc(-c2cnc(NC3Cc4ccccc4C3)nc2)cn1CC(=O)N1CCc2[nH]nnc2C1 [Compound 107, 2-(4-{2-[(2,3-dihydro-1H-inden-2-yl)amino]pyrimidin-5-yl}-2-methyl-1H-imidazol-1-yl)-1-{1H,4H,5H,6H,7H-[1,2,3]triazolo[4,5-c]pyridin-5-yl}ethan-1-one]",–,–,4.87,IC50 (human ENPP2; [3]): 1.56 nM
"O=C(NCCC(=O)N1CCc2[nH]nnc2C1)c1cnc(NCc2cccc(OC(F)(F)F)c2)nc1 [Compound 2, N-(3-oxo-3-{1H,4H,5H,6H,7H-[1,2,3]triazolo[4,5-c]pyridin-5-yl}propyl)-2-({[3-(trifluoromethoxy)phenyl]methyl}amino)pyrimidine-5-carboxamide]",2.1,23,–,–
"O=C(NC[C@H]1CN(c2ccc3[nH]c(=O)oc3c2)C(=O)O1)c1cnc(NCc2cccc(OC(F)(F)F)c2)nc1 [Compound 10, N-{[(5S)-2-oxo-3-(2-oxo-2,3-dihydro-1,3-benzoxazol-6-yl)-1,3-oxazolidin-5-yl]methyl}-2-({[3-(trifluoromethoxy)phenyl]methyl}amino)pyrimidine-5-carboxamide]",–,10,–,IC50 (human ENPP2; read-out: IC50): 2.8 nM
"O=C(CN1CCN(c2cnc(NC3Cc4ccccc4C3)nc2)CC1)Nc1ccc2[nH]c(=O)oc2c1 [Compound 27, 2-(4-{2-[(2,3-dihydro-1H-inden-2-yl)amino]pyrimidin-5-yl}piperazin-1-yl)-N-(2-oxo-2,3-dihydro-1,3-benzoxazol-6-yl)acetamide]",2.4,10,–,–
"O=C(Cn1cc(-c2cnc(NC3Cc4ccccc4C3)nc2)c(CN2CCNCC2)n1)N1CCc2[nH]nnc2C1 [Compound 89, 2-(4-{2-[(2,3-dihydro-1H-inden-2-yl)amino]pyrimidin-5-yl}-3-(piperazin-1-ylmethyl)-1H-pyrazol-1-yl)-1-{1H,4H,5H,6H,7H-[1,2,3]triazolo[4,5-c]pyridin-5-yl}ethan-1-one]",4.2,21,–,–
"CC(C)(CN1CCc2[nH]nnc2C1)C(=O)N1CCN(c2cnc(NC3Cc4ccccc4C3)nc2)CC1 [Compound 19, 1-(4-{2-[(2,3-dihydro-1H-inden-2-yl)amino]pyrimidin-5-yl}piperazin-1-yl)-2,2-dimethyl-3-{1H,4H,5H,6H,7H-[1,2,3]triazolo[4,5-c]pyridin-5-yl}propan-1-one]",3.1,25,–,–
"O=C(CCN1CCc2[nH]nnc2C1)N1CCC(c2cnc(NC3Cc4ccccc4C3)nc2)CC1 [Compound 14, 1-(4-{2-[(2,3-dihydro-1H-inden-2-yl)amino]pyrimidin-5-yl}piperidin-1-yl)-3-{1H,4H,5H,6H,7H-[1,2,3]triazolo[4,5-c]pyridin-5-yl}propan-1-one]",2.4,8,–,–
"NC1CCC(c2nn(CC(=O)N3CCc4[nH]nnc4C3)cc2-c2cnc(NC3Cc4ccccc4C3)nc2)CC1 (stereo not shown) [Compound 99, 2-[3-(4-aminocyclohexyl)-4-{2-[(2,3-dihydro-1H-inden-2-yl)amino]pyrimidin-5-yl}-1H-pyrazol-1-yl]-1-{1H,4H,5H,6H,7H-[1,2,3]triazolo[4,5-c]pyridin-5-yl}ethan-1-one]",–,–,5.59,IC50 (human ENPP2; [3]): 2.8 nM
"NNC(=O)C1=CCN(C(=O)Cc2nnc(-c3cnc(NC4Cc5ccccc5C4)nc3)o2)CC1 [Compound 120, 1-[2-(5-{2-[(2,3-dihydro-1H-inden-2-yl)amino]pyrimidin-5-yl}-1,3,4-oxadiazol-2-yl)acetyl]-1,2,3,6-tetrahydropyridine-4-carbohydrazide Hydrochloride]",–,–,380,IC50 (human ENPP2): 25.9 nM
"O=C(CN1CCC(c2cnc(NC3Cc4ccccc4C3)nc2)CC1)N1CCc2[nH]nnc2C1 [Compound 22, 2-(4-{2-[(2,3-dihydro-1H-inden-2-yl)amino]pyrimidin-5-yl}piperidin-1-yl)-1-{1H,4H,5H,6H,7H-[1,2,3]triazolo[4,5-c]pyridin-5-yl}ethan-1-one]",2.9,57,–,–
"O=C(Cc1cn(-c2ccc(Cl)cc2)c(-c2cnc(NC3Cc4ccccc4C3)nc2)n1)N1CCc2[nH]nnc2C1 [Compound 117, 2-[1-(4-chlorophenyl)-2-{2-[(2,3-dihydro-1H-inden-2-yl)amino]pyrimidin-5-yl}-1H-imidazol-4-yl]-1-{1H,4H,5H,6H,7H-[1,2,3]triazolo[4,5-c]pyridin-5-yl}ethan-1-one]",–,–,> 100,IC50 (human ENPP2; [3]): 1.84 nM
"O=C(CO)N1CCC(c2nn(CC(=O)N3CCc4[nH]nnc4C3)cc2-c2cnc(NC3Cc4ccccc4C3)nc2)CC1 [Compound 118, 1-[4-(4-{2-[(2,3-dihydro-1H-inden-2-yl)amino]pyrimidin-5-yl}-1-(2-oxo-2-{1H,4H,5H,6H,7H-[1,2,3]triazolo[4,5-c]pyridin-5-yl}ethyl)-1H-pyrazol-3-yl)piperidin-1-yl]-2-hydroxyethan-1-one]",–,–,5.3,IC50 (human ENPP2; [3]): < 1.56 nM
"O=C(O)c1ccc(-c2nn(CC(=O)N3CCc4[nH]nnc4C3)cc2-c2cnc(NC3Cc4ccccc4C3)nc2)cc1 [Compound 119, 4-(4-{2-[(2,3-dihydro-1H-inden-2-yl)amino]pyrimidin-5-yl}-1-(2-oxo-2-{1H,4H,5H,6H,7H-[1,2,3]triazolo[4,5-c]pyridin-5-yl}ethyl)-1H-pyrazol-3-yl)benzoic Acid]",–,–,9.19,IC50 (human ENPP2; [3]): < 1.56 nM
